One data set deals with biosimilar AVASTIN®. As to the kind of experiment: Viscosity of aqueous solutions of biosimilar AVASTIN® with viscosity-lowering agents. It counts as physicochemical.
In a further data set the test system is branded ERBITUX®. As to the kind of experiment: Viscosity of aqueous solutions of branded ERBITUX®. The format is physicochemical. As to conditions: 224 ± 4 mg/mL mAb; phosphate buffer or 0.25M BSAA; 25° C., pH 7.0. An excerpt:
(unless otherwise indicated).

For a further data set, the system named is REMICADE®. As to the kind of experiment: Viscosity of aqueous solutions of […]® with viscosity-lowering agents. The format is physicochemical. As to conditions: 25° C.
For another data set, the system named is HERCEPTIN®. As to the kind of experiment: Viscosity of aqueous solutions of HERCEPTIN® with viscosity-lowering agents. It counts as physicochemical. As to conditions: 25° C.
For a further data set, the system named is TYSABRI®. As to the kind of experiment: Viscosity of aqueous solutions of TYSABRI® with viscosity-lowering agents. It counts as physicochemical. As to conditions: 25° C.
A further data set deals with biosimilar ERBITUX®. As to the kind of experiment: Viscosity of aqueous solutions of biosimilar ERBITUX® with viscosity-lowering agents. As to conditions: pH 7.0; for Viscosity / Fold Reduction: 0.25M agent; for Fold Reduction: vs phosphate buffer.
A further data set deals with SIMPONI ARIA®. To be noted: […] thiamine HCl vs […] phosphate buffer; FIG. 9.
The test system of data set [1] is biosimilar AVASTIN®, TYSABRI®, HERCEPTIN®, biosimilar ERBITUX®, REMICADE®. As to conditions: thiamine HCl 0.1-0.25 M vs 0.25 M PB; Table 33.
Experimental: (§1) All viscosities of well-mixed aqueous mAb solutions were measured using either a mVROC microfluidic viscometer (RheoSense) or a DV2T cone and plate viscometer (Brookfield; “C & P”) after a 5 minute equilibration at 25° C. […] The mVROC viscometer was equipped with an “A” or “B” chip, each manufactured with a 50 micron channel. Typically, 0.10 mL of protein solution was back-loaded into a gastight microlab instrument syringe (Hamilton; 100 μL), affixed to the chip, and measured at multiple flow rates, approximately 20%, 40%, and 60% of the maximum pressure for each chip. […] An average absolute viscosity and standard deviation was then calculated from at least these three measurements. The C & P viscometer was equipped with a CPE40 or CPE52 spindle (cone angle of 0.8° and 3.0°, respectively) and 0.50 mL samples were measured at multiple shear rates between 2 and 400 s^−1. Specifically, samples were measured for 30 seconds each at 22.58, 24.38, 26.25, 28.13, 30, 31.88, 45, 67.5, 90, 112.5, 135, 157.5, 180, 202.5, 247, 270, 292.5, 315, 337.5, 360, 382, 400 s^−1, starting at a shear rate that gave at least 10% torque, and continuing until instrument torque reached 100%. An extrapolated zero-shear viscosity was then determined from a plot of dynamic viscosity versus shear rate for the samples measured on a DV2T cone and plate viscometer. […]

SMILES strings stand for the structures. Counter-ions that a name gives are not always drawn. Like-named read-outs stand apart in the source and are kept apart here.

Experimental for ENBREL®: All viscosities of well-mixed aqueous mAb solutions were measured using either a mVROC microfluidic viscometer (RheoSense) or a DV2T cone and plate viscometer (Brookfield; “C & P”) after a 5 minute equilibration at 25° C. […] The mVROC viscometer was equipped with an “A” or “B” chip, each manufactured with a 50 micron channel. Typically, 0.10 mL of protein solution was back-loaded into a gastight microlab instrument syringe (Hamilton; 100 μL), affixed to the chip, and measured at multiple flow rates, approximately 20%, 40%, and 60% of the maximum pressure for each chip. […] An average absolute viscosity and standard deviation was then calculated from at least these three measurements. The C & P viscometer was equipped with a CPE40 or CPE52 spindle (cone angle of 0.8° and 3.0°, respectively) and 0.50 mL samples were measured at multiple shear rates between 2 and 400 s^−1. Specifically, samples were measured for 30 seconds each at 22.58, 24.38, 26.25, 28.13, 30, 31.88, 45, 67.5, 90, 112.5, 135, 157.5, 180, 202.5, 247, 270, 292.5, 315, 337.5, 360, 382, 400 s^−1, starting at a shear rate that gave at least 10% torque, and continuing until instrument torque reached 100%. An extrapolated zero-shear viscosity was then determined from a plot of dynamic viscosity versus shear rate for the samples measured on a DV2T cone and plate viscometer. The extrapolated zero-shear viscosities reported are the average and standard deviation of at least three measurements.
ENBREL® obtained commercially and containing pharmaceutical excipients (Mannitol, Sucrose, Tromethamine) was purified, buffer exchanged, concentrated, dried, reconstituted, and analyzed as described in Example 1 above (using the extinction coefficient of 0.96 L/g·cm at 280 nm).
Experimental for SIMPONI ARIA®: as §1

Take `N=C(N)NCCC[C@H](N)C(=O)O.O=S(=O)(O)c1ccccc1` [BSAA, benzenesulfonic acid arginine]: the Viscosity came out at 75.3 ± 0.4 cP in the data set on biosimilar AVASTIN® (200 ± 5 mg/mL mAb, pH 7.0, 25° C., [Salt] 0.25 M of anion, C & P viscometer); 26.7 ± 1.2 cP in the data set on REMICADE® (166 ± 4 mg/mL REMICADE, 0.25M agent, pH 7.0); 92.3 ± 1.4 cP in the data set with REMICADE® (222 ± 6 mg/mL REMICADE, 0.25M agent, pH 7.0); 75.4 ± 5.0 cP in the data set on HERCEPTIN® (254 ± 3 mg/mL HERCEPTIN, 0.25M salt, pH 7.0); 115 ± 6 cP in the data set with HERCEPTIN® (270 ± 6 mg/mL HERCEPTIN, 0.25M salt, pH 7.0); 34.9 ± 1.3 cP in the data set with TYSABRI® (230 ± 2 mg/mL TYSABRI, 0.25M agent, pH 7.0). In addition, the Viscosity in the data set on biosimilar ERBITUX® (222 ± 5 mg/mL mAb, 25° C.) amounted to 53.4 ± 5.5 cP; in the data set on biosimilar ERBITUX® (225 ± 5 mg/mL mAb, 20° C.), 85.2 ± 0.6 cP; in the data set on biosimilar ERBITUX® (225 ± 5 mg/mL mAb, 25° C.) it was 61.3 ± 0.9 cP; in the data set with biosimilar ERBITUX® (225 ± 5 mg/mL mAb, 30° C.), 50.5 ± 1.9 cP. In addition, the “Branded ERBITUX ® viscosity” value in the data set on branded ERBITUX® turned out to be 44.1 ± 0.5 cP. In addition, in the data set with biosimilar ERBITUX® (224 ± 4 mg/mL mAb, phosphate buffer or 0.25M BSAA, 25° C.), the “Biosimilar ERBITUX ® viscosity” value is 53.4 ± 5.5 cP. In addition, the “Fold Reduction” value with biosimilar ERBITUX® (222 ± 5 mg/mL mAb, 25° C.) was about 21 fold; in the data set with biosimilar ERBITUX® (222 ± 5 mg/mL mAb, 25° C., listed as BSA Arginine), 21.2 fold.
Regarding `Cc1ncc(C[n+]2csc(CCO)c2C)c(N)n1` [Thiamine HCl], the Viscosity came to 31.5 ± 1.7 cP in the data set on biosimilar AVASTIN® (190 mg/mL mAb, excipient 0.1 M, 25° C.); 53.3 ± 6.8 cP in the data set with biosimilar AVASTIN® (225 mg/mL mAb, excipient 0.25 M, 25° C.); 40.7 ± 0.3 cP in the data set on REMICADE® (178 mg/mL REMICADE, excipient […]); 41.6 ± 0.5 cP in the data set with HERCEPTIN® (218 mg/mL HERCEPTIN, excipient 0.1 M); 41.5 ± 0.5 cP with HERCEPTIN® (245 mg/mL HERCEPTIN, 0.10M agent); 43.4 ± 0.7 cP with TYSABRI® (244 mg/mL TYSABRI, excipient 0.1 M). The Viscosity with ENBREL® (212 ± 7 mg/mL ENBREL) turned out to be 141 ± 3; in the data set on ENBREL® (250 ± 3 mg/mL ENBREL), 305 ± 7; in the data set on ENBREL® (271 ± 0 mg/mL ENBREL), 626 ± 32. In the data set with ENBREL® ([…] thiamine HCl vs […] PB), the Viscosity reduction entry is recorded as “up to 2 fold”. Moreover, the “Viscosity gradient (increase in viscosity with mAb concentration)” value in the data set with SIMPONI ARIA® is given as “the viscosity gradient is reduced”. Further, in [1], the “Viscosity reduction for each mAb” value is recorded as “greater than 4 fold”.
